One test has as its system Pythium ultimum. Kind of test: Amended agar assay. Format: cell-based. As to conditions: Globisporangium ultimum; potato dextrose agar amended with compound at 2 ppm, 18° C., 2 to 7 days; read-out: % control Pythium ultimum (% reduction in colony growth compared to the control plate). The procedure:
Amended Agar Assay Testing was carried out on potato dextrose agar (PDA) amended with each compound at a test concentration of 2 ppm. Amended agar was poured into three replicate 9 cm petri dishes. Each replicate dish was inoculated in the centre with a 5 mm agar plug taken from the leading edge of a culture aged between 2 and 7 days old; the age of the culture was dependent on the growth rate of the pathogen being tested. The test pathogen was Pythium ultimum. Plates were incubated at 18° C. and the diameter of each colony measured before growth on the fastest growing plate reached the plate edge. This varied between 2 and 7 days depending on the growth rate of test pathogens. The % reduction in colony growth compared to the control plate was calculated. The results are provided in Table 1, in which D represents no control detected at this concentration; C represents up to 50% control; B from 50 to 99% control; and A represents a control of greater than 99%, i.e. no detectable colony growth.

Another test has as its system Phytophthora cactorum. Kind of test: 96 well plate test. Format: cell-based. As to conditions: Phytophthora cactorum; agar amended to 2, 0.2, 0.02 and 0.002 ppm, 18° C., assessed after 2 to 3 days. On the procedure: Compounds were screened in 96 well plates with 10 compounds per plate. Each compound was screened using agar amended to 2, 0.2, 0.02 and 0.002 ppm, with proline at 50 and 10 ppm and 0.2% DMSO used as controls. Each test concentration and standard was replicated twice on a plate. Compounds were screened against Phytophthora cactorum. The agar used in the test is a 1% potato dextrose agar. 1000 spores/mL agar were added to the appropriate agar.
A ×10 stock solution in 2% DMSO was produced for each dose i.e. 20, 2, 0.2 and 0.02 ppm, and 10 μl of this added to the appropriate wells on the plate. An equivalent amount of 2% DMSO and proline stock at 500 and 100 ppm were added for the controls. To each well 90 μl of the appropriate agar spore suspension was added to give the required final well concentrations. Plates were incubated at room temperature (18° C.) and assessed after 2 to 3 days. The amount of pathogen growth in each well was compared to the DMSO controls and an EC50 concentration was calculated. The results are provided in Table 1 in which G represents no control detected at 2 ppm, F represents an EC50 of ≥2 ppm, and E represents an EC50 of less than 2 ppm.

As to `Cn1nnnc1-n1c(OCc2cccc(NC(=O)C3CC3)n2)nc2c(Cl)cccc21` [Compound 1, N-(6-(((4-Chloro-1-(1-methyl-1H-tetrazol-5-yl)-1H-benzo[d]imidazol-2-yl)oxy)methyl)pyridin-2-yl)cyclopropanecarboxamide], in the test on Pythium ultimum, the inhibition of growth at 2 ppm was over 99%. The molecule further registered a half-maximal effective concentration (EC50) in the test on Phytophthora cactorum of under 2 µg/mL.
For the molecule `Cn1nnnc1-n1c(OCc2cccc(NC(=O)COc3ccccc3)n2)nc2c(Cl)cccc21` [Compound 2], the inhibition of growth at 2 ppm in the test on Pythium ultimum is over 99%. This molecule returned an EC50 with Phytophthora cactorum of under 2 µg/mL.
Taken in the same sequence, the figures for `Cn1nnnc1-n1c(OCc2cccc(NC(=O)OC(C)(C)C)n2)nc2c(Cl)cccc21` [Compound 3] were over 99% and under 2 µg/mL.
Regarding `COc1cc(F)cc2c1nc(OCc1cccc(NC(=O)OC(C)(C)C)n1)n2-c1nnnn1C` [Compound 4], the inhibition of growth at 2 ppm in the test on Pythium ultimum was over 99%. Also, the EC50 in the test on Phytophthora cactorum is under 2 µg/mL.
In the case of `COc1cc(F)cc2c1nc(OCc1cccc(NC(=O)COc3ccccc3)n1)n2-c1nnnn1C` [Compound 5], in the test with Pythium ultimum, the inhibition of growth at 2 ppm is over 99%. The molecule further came in with an EC50 in the test on Phytophthora cactorum of under 2 µg/mL.
`COc1cc(F)cc2c1nc(OCc1cccc(NC(=O)C3CC3)n1)n2-c1nnnn1C` [Compound 6]: the inhibition of growth at 2 ppm in the test on Pythium ultimum lay within 50 to 99%. This molecule also yielded an EC50 in the test with Phytophthora cactorum of at least 2 µg/mL.
In the case of `C=CCOc1cccc2c1nc(OCc1cccc(NC(=O)OC(C)(C)C)n1)n2-c1nnnn1C` [Compound 7, tert-butyl (6-(((4-(allyloxy)-1-(1-methyl-1H-tetrazol-5-yl)-1H-benzo[d]imidazol-2-yl)oxy)methyl)pyridin-2-yl)carbamate], the inhibition of growth at 2 ppm in the test on Pythium ultimum is over 99%. This molecule came in with an EC50 in the test on Phytophthora cactorum of under 2 µg/mL.
Take `COc1cccc2c1nc(OCc1cccc(NC(=O)OC(C)(C)C)n1)n2-c1nnnn1C` [Compound 8]: the inhibition of growth at 2 ppm in the test on Pythium ultimum is over 99%. In the test with Phytophthora cactorum, this molecule displayed an EC50 of under 2 µg/mL.
For `CC(C)CCC(=O)Nc1cccc(COc2nc3c(Cl)cccc3n2-c2nnnn2C)n1` [Compound 9], the inhibition of growth at 2 ppm with Pythium ultimum was over 99%. This molecule yielded an EC50 in the test on Phytophthora cactorum of under 2 µg/mL.
For `Cn1nnnc1-n1c(OCc2cccc(NC(=O)C3CCCC3)n2)nc2c(Cl)cccc21` [Compound 10], the inhibition of growth at 2 ppm in the test with Pythium ultimum is over 99%. In the test on Phytophthora cactorum, this molecule gave an EC50 of under 2 µg/mL.
As for `C=CCOC(=O)Nc1cccc(COc2nc3c(Cl)cccc3n2-c2nnnn2C)n1` [Compound 11], in the test on Pythium ultimum, the inhibition of growth at 2 ppm is over 99%. The EC50 in the test on Phytophthora cactorum is under 2 µg/mL.
In the case of `CCCC(=O)Nc1cccc(COc2nc3c(Cl)cccc3n2-c2nnnn2C)n1` [Compound 12], the inhibition of growth at 2 ppm with Pythium ultimum is over 99%. In the test with Phytophthora cactorum, the EC50 is under 2 µg/mL.
For the molecule `CCCCOC(=O)Nc1cccc(COc2nc3c(Cl)cccc3n2-c2nnnn2C)n1` [Compound 13], the inhibition of growth at 2 ppm in the test on Pythium ultimum was over 99%. The concentration for a half-maximal effect (EC50) with Phytophthora cactorum is under 2 µg/mL.
For the molecule `CCOC(=O)Nc1cccc(COc2nc3c(Cl)cccc3n2-c2nnnn2C)n1` [Compound 14], the inhibition of growth at 2 ppm with Pythium ultimum is over 99%. In the test on Phytophthora cactorum, the EC50 was at least 2 µg/mL.
Take `CC(C)COC(=O)Nc1cccc(COc2nc3c(Cl)cccc3n2-c2nnnn2C)n1` [Compound 15]: the inhibition of growth at 2 ppm with Pythium ultimum is over 99%. The EC50 in the test on Phytophthora cactorum was under 2 µg/mL.
For the molecule `CCCOC(=O)Nc1cccc(COc2nc3c(Cl)cccc3n2-c2nnnn2C)n1` [Compound 16], the inhibition of growth at 2 ppm in the test with Pythium ultimum is over 99%. The EC50 in the test with Phytophthora cactorum was under 2 µg/mL.
As to `Cn1nnnc1-n1c(OCc2cccc(NC(=O)OC3CCCC3)n2)nc2c(Cl)cccc21` [Compound 17], the inhibition of growth at 2 ppm in the test on Pythium ultimum was over 99%. This molecule gave a 50% effective concentration (EC50) in the test with Phytophthora cactorum of under 2 µg/mL.
Turning to `CC(C)OC(=O)Nc1cccc(COc2nc3c(Cl)cccc3n2-c2nnnn2C)n1` [Compound 18], in the test on Pythium ultimum, the inhibition of growth at 2 ppm is over 99%. The same molecule displayed an EC50 in the test with Phytophthora cactorum of at least 2 µg/mL.
The corresponding values for `Cn1nnnc1-n1c(OCc2cccc(NC(=O)C(C)(C)C)n2)nc2c(Cl)cccc21` [Compound 19] are over 99% and under 2 µg/mL.
Taken in the same sequence, the figures for `Cc1cccc2c1nc(OCc1cccc(NC(=O)COc3ccccc3)n1)n2-c1nnnn1C` [Compound 20] were over 99% and under 2 µg/mL.
With `Cc1cccc2c1nc(OCc1cccc(NC(=O)OC(C)(C)C)n1)n2-c1nnnn1C` [Compound 21], the inhibition of growth at 2 ppm in the test with Pythium ultimum was over 99%. In the test on Phytophthora cactorum, this molecule had an EC50 of under 2 µg/mL.
As to `Cn1nnnc1-n1c(OCc2cccc(NC(=O)OC(C)(C)C)n2)nc2c(O)cccc21` [Compound 22, tert-Butyl (6-(((4-hydroxy-1-(1-methyl-1H-tetrazol-5-yl)-1H-benzo[d]imidazol-2-yl)oxy)methyl)pyridin-2-yl)carbamate], the inhibition of growth at 2 ppm in the test with Pythium ultimum was in the range of 50 to 99%. The molecule further returned an EC50 in the test with Phytophthora cactorum of at least 2 µg/mL.
Consider `CCC(=O)Nc1cccc(COc2nc3c(Cl)cccc3n2-c2nnnn2C)n1` [Compound 23, N-(6-(((4-Chloro-1-(1-methyl-1H-tetrazol-5-yl)-1H-benzo[d]imidazol-2-yl)oxy)methyl)pyridin-2-yl)propionamide], for which the inhibition of growth at 2 ppm in the test on Pythium ultimum was over 99%. Also, the EC50 with Phytophthora cactorum was at least 2 µg/mL.
As to `CC(C)C(=O)Nc1cccc(COc2nc3c(Cl)cccc3n2-c2nnnn2C)n1` [Compound 24], in the test on Pythium ultimum, the inhibition of growth at 2 ppm was over 99%. In the test with Phytophthora cactorum, this molecule registered an EC50 of under 2 µg/mL.
Regarding `CCCCC(=O)Nc1cccc(COc2nc3c(Cl)cccc3n2-c2nnnn2C)n1` [Compound 25], in the test on Pythium ultimum, the inhibition of growth at 2 ppm is over 99%. This molecule also yielded an EC50 in the test with Phytophthora cactorum of under 2 µg/mL.
For `CC(C)CC(=O)Nc1cccc(COc2nc3c(Cl)cccc3n2-c2nnnn2C)n1` [Compound 26], the inhibition of growth at 2 ppm in the test on Pythium ultimum was over 99%. This molecule showed an EC50 with Phytophthora cactorum of under 2 µg/mL.
As to `CCC(CC)C(=O)Nc1cccc(COc2nc3c(Cl)cccc3n2-c2nnnn2C)n1` [Compound 27], the inhibition of growth at 2 ppm in the test on Pythium ultimum is over 99%. In the test with Phytophthora cactorum, the EC50 is under 2 µg/mL.
As to `CC(=O)Nc1cccc(COc2nc3c(Cl)cccc3n2-c2nnnn2C)n1` [Compound 28], the inhibition of growth at 2 ppm with Pythium ultimum lay in the range of 50 to 99%. Besides, in the test with Phytophthora cactorum, the EC50 is at least 2 µg/mL.
Take `Cn1nnnc1-n1c(OCc2cccc(NC(=O)C(F)(F)F)n2)nc2c(Cl)cccc21` [Compound 29]: the inhibition of growth at 2 ppm in the test with Pythium ultimum is over 99%. Also, the EC50 in the test on Phytophthora cactorum is under 2 µg/mL.
For `Cn1nnnc1-n1c(OCc2cccc(NC(=O)CC(F)(F)F)n2)nc2c(Cl)cccc21` [Compound 30], the inhibition of growth at 2 ppm with Pythium ultimum was over 99%. The EC50 in the test on Phytophthora cactorum is under 2 µg/mL.
In the case of `Cn1nnnc1-n1c(OCc2cccc(NC(=O)c3ccccc3)n2)nc2c(Cl)cccc21` [Compound 31], the inhibition of growth at 2 ppm in the test on Pythium ultimum is over 99%. In the test on Phytophthora cactorum, this molecule had an EC50 of under 2 µg/mL.
As to `Cn1nnnc1-n1c(OCc2cccc(NC(=O)C3CCC3)n2)nc2c(Cl)cccc21` [Compound 32], the inhibition of growth at 2 ppm in the test on Pythium ultimum was over 99%. The molecule also came in with a concentration giving a half-maximal response (EC50) with Phytophthora cactorum of under 2 µg/mL.
For `Cn1nnnc1-n1c(OCc2cccc(NC(=O)CC(C)(C)C)n2)nc2c(Cl)cccc21` [Compound 33], the inhibition of growth at 2 ppm in the test with Pythium ultimum was over 99%. This molecule also gave an EC50 with Phytophthora cactorum of under 2 µg/mL.
Regarding `Cn1nnnc1-n1c(OCc2cccc(NC(=O)OC(C)(C)C)n2)nc2c(Br)cccc21` [Compound 34, tert-Butyl (6-(((4-bromo-1-(1-methyl-1H-tetrazol-5-yl)-1H-benzo[d]imidazol-2-yl)oxy)methyl)pyridin-2-yl)carbamate], the inhibition of growth at 2 ppm in the test on Pythium ultimum was over 99%. Moreover, the EC50 with Phytophthora cactorum was under 2 µg/mL.
As for `CCCCOC(=O)Nc1cccc(COc2nc3c(Br)cccc3n2-c2nnnn2C)n1` [Compound 35], in the test on Pythium ultimum, the inhibition of growth at 2 ppm is over 99%. The molecule further registered an EC50 with Phytophthora cactorum of under 2 µg/mL.
Taken in the same sequence, the figures for `Cn1nnnc1-n1c(OCc2cccc(NC(=O)COc3ccccc3)n2)nc2c(Br)cccc21` [Compound 36] were over 99% and under 2 µg/mL.
For `Cn1nnnc1-n1c(OCc2cccc(NC(=O)C3CCCC3)n2)nc2c(Br)cccc21` [Compound 37], in the test with Pythium ultimum, the inhibition of growth at 2 ppm was over 99%. This molecule also displayed an EC50 in the test with Phytophthora cactorum of under 2 µg/mL.
As to `CC(C)COC(=O)Nc1cccc(COc2nc3c(Br)cccc3n2-c2nnnn2C)n1` [Compound 38], in the test with Pythium ultimum, the inhibition of growth at 2 ppm is over 99%. In the test on Phytophthora cactorum, the EC50 is under 2 µg/mL.
For `CCCOC(=O)Nc1cccc(COc2nc3c(Br)cccc3n2-c2nnnn2C)n1` [Compound 39], the inhibition of growth at 2 ppm with Pythium ultimum is over 99%. Moreover, in the test with Phytophthora cactorum, the EC50 is under 2 µg/mL.
With `Cn1nnnc1-n1c(OCc2cccc(NC(=O)OC3CCCC3)n2)nc2c(Br)cccc21` [Compound 40], the inhibition of growth at 2 ppm in the test with Pythium ultimum was over 99%. This molecule also returned an EC50 with Phytophthora cactorum of under 2 µg/mL.
